Laboratory results as given in patent US12240844B2 (Voronoi, Inc., priority 2019, dated 2025).

Columns and labels:
[1] = molecular target: T1, human GST-DYRK1A (full length) (Homo sapiens, UniProt Q13627); test: GST-DYRK1A enzyme inhibition, ADP-Glo kinase assay; type: biochemical; conditions: read-out: DYRK1 IC50
T1 construct: purified human GST-DYRK1A (full length, Thermo scientifics) enzyme; GST; purchased Thermo scientifics
Summary of the method: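 ADP-Glo luminescence quantified kinase activity after a 1 h, 25° C reaction of 10 ng full-length GST-tagged human DYRK1A, substrate and 10 uM ATP in Tris-HCl buffer pH 7.4 with MgCl2, BSA and DTT. Triplicate IC50 values (nM) calculated relative to untreated solvent control.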

[2] = tested on: human DYRK1A and Tau; test: Tau phosphorylation inhibition, ClariCELL Kinase Cell-Based Assay (Carnabio)
Description: Tau phosphorylation inhibitory efficacy was measured using the ClariCELL™ Kinase Cell-Based Assay service of Carnabio, located in the United States. The compounds are exposed to human embryonic kidney ([…]) cells transiently expressing human DYRK1A and Tau, and then the cells are lysed to release cellular proteins. At this time, the released Tau is captured on a plate, and the degree of phosphorylation is quantified by ELISA using an antibody specific for Tau phosphorylation.

[3] = molecular target: LRRK2 (G2019S) (Homo sapiens, UniProt Q5S007, G2019S); test: LRRK2 G2019S enzyme inhibition, ADP-Glo kinase assay; type: biochemical; parameters: purchased SignalChem L10-12GG
LRRK2 (G2019S), sequence (Q5S007 970-2527 G2019S limits assumed): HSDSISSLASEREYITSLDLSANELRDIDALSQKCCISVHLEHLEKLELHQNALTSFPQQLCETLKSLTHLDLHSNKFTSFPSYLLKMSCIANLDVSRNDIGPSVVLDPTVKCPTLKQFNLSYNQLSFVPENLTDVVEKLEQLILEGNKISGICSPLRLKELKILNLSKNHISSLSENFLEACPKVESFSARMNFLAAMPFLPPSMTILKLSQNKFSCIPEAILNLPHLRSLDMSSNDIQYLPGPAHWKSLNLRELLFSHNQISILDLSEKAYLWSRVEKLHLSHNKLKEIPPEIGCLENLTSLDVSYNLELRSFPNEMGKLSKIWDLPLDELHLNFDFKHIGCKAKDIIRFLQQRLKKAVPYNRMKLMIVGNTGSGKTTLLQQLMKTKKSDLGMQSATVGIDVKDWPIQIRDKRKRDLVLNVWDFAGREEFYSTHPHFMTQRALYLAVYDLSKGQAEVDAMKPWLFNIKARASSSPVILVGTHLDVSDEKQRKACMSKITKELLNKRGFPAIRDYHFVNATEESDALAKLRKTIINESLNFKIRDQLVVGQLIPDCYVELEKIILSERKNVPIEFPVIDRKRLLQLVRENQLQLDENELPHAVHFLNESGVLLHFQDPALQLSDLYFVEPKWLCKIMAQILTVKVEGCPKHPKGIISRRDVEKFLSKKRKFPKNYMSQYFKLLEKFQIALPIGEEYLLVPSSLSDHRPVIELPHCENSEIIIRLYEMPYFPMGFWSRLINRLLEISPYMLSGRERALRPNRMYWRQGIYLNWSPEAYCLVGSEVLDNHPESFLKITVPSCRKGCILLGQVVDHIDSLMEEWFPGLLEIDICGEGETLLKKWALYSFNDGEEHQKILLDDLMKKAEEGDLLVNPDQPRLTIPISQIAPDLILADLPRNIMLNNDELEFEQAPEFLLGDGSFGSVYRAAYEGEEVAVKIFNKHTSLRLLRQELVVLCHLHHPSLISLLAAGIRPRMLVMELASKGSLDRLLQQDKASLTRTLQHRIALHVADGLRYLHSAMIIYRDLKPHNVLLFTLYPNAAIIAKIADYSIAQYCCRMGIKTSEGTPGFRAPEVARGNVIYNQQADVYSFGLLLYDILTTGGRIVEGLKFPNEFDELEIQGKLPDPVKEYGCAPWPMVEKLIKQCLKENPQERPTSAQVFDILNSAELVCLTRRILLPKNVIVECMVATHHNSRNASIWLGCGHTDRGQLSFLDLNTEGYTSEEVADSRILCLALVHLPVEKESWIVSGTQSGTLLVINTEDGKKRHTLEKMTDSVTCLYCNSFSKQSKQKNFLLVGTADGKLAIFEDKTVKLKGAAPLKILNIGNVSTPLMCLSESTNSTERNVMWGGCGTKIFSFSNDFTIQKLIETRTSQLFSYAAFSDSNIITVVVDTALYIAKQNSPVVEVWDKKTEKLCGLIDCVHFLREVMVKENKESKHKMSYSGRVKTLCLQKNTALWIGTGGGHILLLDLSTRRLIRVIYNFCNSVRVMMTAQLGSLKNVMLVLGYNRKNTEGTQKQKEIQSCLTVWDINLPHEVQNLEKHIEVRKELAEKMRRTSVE
Summary of the method: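 Activity read as ADP-Glo luminescence, normalized to untreated solvent control, with IC50 (nM) fitted over 12 final compound levels (top 50 μM). Reaction: 2 h, 25° C, human LRRK2 G2019S 16 ng, ATP 25 μM, substrate 0.2 μg, in Tris-HCl pH 7.4 with MgCl2, BSA and DTT.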

[4] = molecular target: T2, human GST-CLK1 (129-end) (Homo sapiens, UniProt P49759); test: GST-CLK1 enzyme inhibition, ADP-Glo kinase assay; type: biochemical; conditions: ATP 10 uM
T2 construct: purified human GST-CLK1 (129-end, Signalchem) enzyme; GST; purchased Signalchem
T2 sequence (P49759 129-484 limits assumed): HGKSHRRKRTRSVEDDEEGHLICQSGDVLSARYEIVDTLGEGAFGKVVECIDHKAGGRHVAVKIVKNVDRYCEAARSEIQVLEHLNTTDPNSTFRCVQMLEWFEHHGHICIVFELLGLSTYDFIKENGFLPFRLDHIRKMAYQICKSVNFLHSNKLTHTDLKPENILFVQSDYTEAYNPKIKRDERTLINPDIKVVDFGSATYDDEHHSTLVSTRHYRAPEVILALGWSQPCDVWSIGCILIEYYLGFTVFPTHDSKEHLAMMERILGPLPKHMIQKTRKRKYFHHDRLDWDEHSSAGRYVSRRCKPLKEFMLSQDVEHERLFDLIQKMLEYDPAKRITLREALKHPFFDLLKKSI
Summary of the method: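 ADP formation was read by ADP-Glo luminescence after 1 h at 25° C with 3 ng human GST-CLK1 (129-end), substrate and 10 uM ATP in Tris pH 7.4 buffer containing MgCl2, BSA and DTT. Inhibition relative to untreated solvent control gave IC50 (nM), run in triplicate.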

[5] = molecular target: LRRK2 (Homo sapiens, UniProt Q5S007); test: LRRK2 enzyme inhibition, ADP-Glo kinase assay; type: biochemical; parameters: purchased Invitrogen PR8604B
LRRK2, sequence (Q5S007 970-2527 limits assumed): as the sequence (Q5S007 970-2527 G2019S limits assumed) above, with S1050G counted along it
Summary of the method: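 ADP-Glo luminescence read after 2 h at 25° C, 10 μM ATP, 25 ng purified human LRRK2 and […] substrate in Tris-HCl pH7.4 buffer with MgCl2, BSA, DTT. Twelve final concentrations, 50 μM down to 0.000001024 μM; IC50 (nM) from inhibition relative to untreated solvent control.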

Row | SMILES | IC50 [1] [nM] | IC50 [3] [nM] | IC50 [4] [nM] | IC50 [5] [nM] | inhibition at 0.25 µM ([2]; 0.25 uM) [%] | inhibition at 0.5 µM ([2]; 0.5 uM) [%] | inhibition at 1 µM ([2]; 1 uM) [%]
1 | O=C(c1ccc(Nc2cc(NC3CC3)c3c(C(F)(F)F)c[nH]c3n2)c2c1CCO2)N1CCOCC1 [Example 53, (7-((4-(cyclopropylamino)-3-(trifluoromethyl)-1H-pyrrolo[2,3-b]pyridin-6-yl)amino)-2,3-dihydrobenzofuran-4-yl)(morpholino) methanone] | < 100 | < 100 | < 100 | < 100 | – | – | –
2 | COc1cc(S(=O)(=O)N2CCOCC2)ccc1Nc1cc(NC2CCC2)c2c(Cl)c[nH]c2n1 [Example 69, 3-chloro-N^4-cyclobutyl-N^6-(2-methoxy-4-(morpholinosulfonyl)phenyl)-1H-pyrrolo[2,3-b]pyridine-4,6-diamine] | 301 to 1000 | 301 to 1000 | 301 to 1000 | 301 to 1000 | – | – | –
3 | COCCNc1cc(Nc2ccc(C(=O)N3CCOCC3)c3c2OCCO3)nc2[nH]cc(Cl)c12 [Example 62, (8-((3-chloro-4-((2-methoxyethyl)amino)-1H-pyrrolo[2,3-b]pyridin-6-yl)amino)-2,3-dihydrobenzo[b] [1,4]dioxin-5-yl)(morpholino) methanone] | 301 to 1000 | < 100 | 301 to 1000 | < 100 | – | – | –
4 | CCNc1cc(Nc2ccc(S(=O)(=O)N3CCOCC3)cc2OC)nc2[nH]cc(Cl)c12 [Example 65, 3-chloro-N^4-ethyl-N^6-(2-methoxy-4-(morpholinosulfonyl)phenyl)-1H-pyrrolo[2,3-b]pyridine-4,6-diamine] | 301 to 1000 | 301 to 1000 | 301 to 1000 | 101 to 300 | – | – | –
5 | COc1cc(S(=O)(=O)N2CCOCC2)ccc1Nc1cc(NC2CCCCC2)c2c(Cl)c[nH]c2n1 [Example 70, 3-chloro-N^4-cyclohexyl-N^6-(2-methoxy-4-(morpholinosulfonyl)phenyl)-1H-pyrrolo[2,3-b]pyridine-4,6-diamine] | 301 to 1000 | 301 to 1000 | 301 to 1000 | 301 to 1000 | – | – | –
6 | CCNc1cc(Nc2ccc(C(=O)N3CCC(N4CCOCC4)CC3)c3c2OCCO3)nc2[nH]cc(C#N)c12 [Example 113, 4-(ethylamino)-6-((8-(4-morpholinopiperidine-1-carbonyl)-2,3-dihydrobenzo [b] [1,4]dioxin-5-yl)amino)-1H-pyrrolo[2,3-b]pyridine-3-carbonitrile] | 301 to 1000 | < 100 | < 100 | < 100 | – | – | –
7 | CCCNc1cc(Nc2ccc(C(=O)N3CCC(N4CCOCC4)CC3)c3c2OCCO3)nc2[nH]cc(C#N)c12 [Example 114, 6-((8-(4-morpholinopiperidine-1-carbonyl)-2,3-dihydrobenzo [b] [1,4]dioxin-5-yl)amino)-4-(propylamino)-1H-pyrrolo[2,3-b]pyridine-3-carbonitrile] | < 100 | < 100 | < 100 | < 100 | – | – | –
8 | CS(=O)(=O)CCNc1cc(Nc2ccc(C(=O)N3CCOCC3)c3c2OCCO3)nc2[nH]cc(C#N)c12 [Example 110, 4-((2-(methylsulfonyl)ethyl)amino)-6-((8-(morpholine-4-carbonyl)-2,3-dihydrobenzo[b] [1,4]dioxin-5-yl)amino)-1H-pyrrolo[2,3-b]pyridine-3-carbonitrile] | 301 to 1000 | < 100 | 101 to 300 | < 100 | – | – | –
9 | CCNc1cc(Nc2ccc(S(C)(=O)=O)cc2OC)nc2[nH]ccc12 [Example 26, N^4-ethyl-N^6-(2-methoxy-4-(methylsulfonyl)phenyl)-1H-pyrrolo[2,3-b]pyridine-4,6-diamine] | 301 to 1000 | < 100 | 301 to 1000 | < 100 | – | – | –
10 | N#Cc1c[nH]c2nc(Nc3ccc(C(=O)N4CCC(N5CCOCC5)CC4)c4c3OCCO4)cc(NC3CCC3)c12 [Example 117, 4-(cyclobutylamino)-6-((8-(4-morpholinopiperidine-1-carbonyl)-2,3-dihydrobenzo[b] [1,4]dioxin-5-yl)amino)-1H-pyrrolo[2,3-b]pyridine-3-carbonitrile] | 301 to 1000 | < 100 | < 100 | < 100 | – | – | –
11 | CNc1cc(Nc2ccc(S(C)(=O)=O)cc2OC)nc2[nH]ccc12 [Example 25, N^6-(2-methoxy-4-(methylsulfonyl)phenyl)-N^4-methyl-1H-pyrrolo[2,3-b]pyridine-4,6-diamine] | 301 to 1000 | < 100 | 301 to 1000 | 101 to 300 | – | – | –
12 | COc1cc(S(C)(=O)=O)ccc1Nc1cc(NCC(C)C)c2cc[nH]c2n1 [Example 29, N^4-isobutyl-N^6-(2-methoxy-4-(methylsulfonyl)phenyl)-1H-pyrrolo[2,3-b]pyridine-4,6-diamine] | 301 to 1000 | 101 to 300 | 301 to 1000 | < 100 | – | – | –
13 | COc1cc(S(C)(=O)=O)ccc1Nc1cc(NC2CC2)c2c(C#N)c[nH]c2n1 [Example 122, 4-(cyclopropylamino)-6-((2-methoxy-4-(methylsulfonyl)phenyl)amino)-1H-pyrrolo[2,3-b]pyridine-3-carbonitrile] | 301 to 1000 | 101 to 300 | 301 to 1000 | < 100 | – | – | –

Second part, led by results:

Row | IC50 [1] [nM] | IC50 [3] [nM] | IC50 [4] [nM] | IC50 [5] [nM] | SMILES | inhibition at 0.25 µM ([2]; 0.25 uM) [%] | inhibition at 0.5 µM ([2]; 0.5 uM) [%] | inhibition at 1 µM ([2]; 1 uM) [%]
14 | 101 to 300 | 101 to 300 | < 100 | – | CCNc1cc(Nc2ccc(C(=O)N3CCN(C4CC4)CC3)c3c2OCC3)nc2[nH]cc(C(F)(F)F)c12 [Example 250, (4-cyclopropylpipe razin-1-yl)(7-((4-(ethylamino)-3-(trifluoromethyl)-1H-pyrrolo[2,3-b]pyridin-6-yl)amino)-2,3-dihydrobenzofuran-4-yl)methanone] | 34 | 59.8 | 82.8
15 | 301 to 1000 | 301 to 1000 | 301 to 1000 | 301 to 1000 | CCNc1cc(Nc2ccc(S(C)(=O)=O)cc2OC)nc2[nH]cc(C(F)(F)F)c12 [Example 180, N^4-ethyl-N^6-(2-methoxy-4-(methylsulfonyl)phenyl)-3-(trifluoromethyl)-1H-pyrrolo[2,3-b]pyridine-4,6-diamine] | – | – | –
16 | < 100 | 301 to 1000 | < 100 | 301 to 1000 | COc1cc(S(C)(=O)=O)ccc1Nc1cc(NCCS(C)(=O)=O)c2c(C(F)(F)F)c[nH]c2n1 [Example 193, N^6-(2-methoxy-4-(methylsulfonyl)phenyl)-N^4-(2-(methylsulfonyl)ethyl)-3-(trifluoromethyl)-1H-pyrrolo[2,3-b]pyridine-4,6-diamine] | – | – | –
17 | 301 to 1000 | 101 to 300 | < 100 | < 100 | O=C(c1ccc(Nc2cc(NC3CC3)c3c(C(F)(F)F)c[nH]c3n2)c2c1OCCO2)N1CCOCC1 [Example 155, (8-((4-(cyclopropylamino)-3-(trifluoromethyl)-1H-pyrrolo[2,3-b]pyridin-6-yl)amino)-2,3-dihydrobenzo[b] [1,4]dioxin-5-yl)(morpholino) methanone 2,2,2-trifluoroacetate] | – | – | –
18 | < 100 | < 100 | < 100 | < 100 | COCCNc1cc(Nc2ccc(C(=O)N3CCC(N4CCOCC4)CC3)c3c2OCCO3)nc2[nH]cc(C(F)(F)F)c12 [Example 164, (8-((4-((2-methoxyethyl)amino)-3-(trifluoromethyl)-1H-pyrrolo[2,3-b]pyridin-6-yl)amino)-2,3-dihydrobenzo[b] [1,4]dioxin-5-yl)(4-morpholinopiperidin-1-yl)methanone] | – | – | –
19 | 301 to 1000 | 301 to 1000 | 301 to 1000 | < 100 | CC(C)CNc1cc(Nc2ccc(C(=O)N3CCOCC3)c3c2OCCO3)nc2[nH]cc(C(F)(F)F)c12 [Example 156, (8-((4-(isobutylamino)-3-(trifluoromethyl)-1H-pyrrolo[2,3-b]pyridin-6-yl)amino)-2,3-dihydrobenzo[b] [1,4]dioxin-5-yl)(morpholino) methanone] | – | – | –
20 | 301 to 1000 | 301 to 1000 | 301 to 1000 | 301 to 1000 | COc1cc(S(=O)(=O)N2CCC(N3CCOCC3)CC2)ccc1Nc1cc(NC2CCCCC2)c2c(C(F)(F)F)c[nH]c2n1 [Example 183, N^4-cyclohexyl-N^6-(2-methoxy-4-((4-morpholinopiperidin-1-yl)sulfonyl)phenyl)-3-(trifluoromethyl)-1H-pyrrolo[2,3-b]pyridine-4,6-diamine] | – | – | –
